Values joined by “and” are separate entries in the source; they are usually repeats but may differ in a detail not shown here. Equal entries are not always repeated.
What was measured:
[1] = biological target: T1, Gonadotropin-releasing hormone receptor (Rattus norvegicus, UniProt P30969); assay: Binding affinity to Gonadotropin-releasing hormone receptor (GnRHr) in rat pituitary cells
T1 sequence (P30969 whole entry): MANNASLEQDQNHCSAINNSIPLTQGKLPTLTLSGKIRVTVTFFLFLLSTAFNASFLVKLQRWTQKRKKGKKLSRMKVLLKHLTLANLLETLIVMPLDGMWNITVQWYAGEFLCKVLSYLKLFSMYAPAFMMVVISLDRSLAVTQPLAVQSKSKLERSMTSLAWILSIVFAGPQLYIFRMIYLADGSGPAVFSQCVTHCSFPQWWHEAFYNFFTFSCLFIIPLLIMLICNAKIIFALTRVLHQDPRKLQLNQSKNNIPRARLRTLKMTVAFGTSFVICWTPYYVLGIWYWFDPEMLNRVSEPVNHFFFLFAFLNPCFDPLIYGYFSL

[2] = biological target: T1, Gonadotropin-releasing hormone receptor; assay: Compound was evaluated for its antagonism in rat primary pituitary cell assay (rLH); type: functional, cell-based, Pituitary gland cell
[3] = biological target: T2, Gonadotropin-releasing hormone receptor (Homo sapiens, UniProt P30968); assay: Inhibition of recombinant human Gonadotropin-releasing hormone receptor
T2 sequence (P30968 whole entry): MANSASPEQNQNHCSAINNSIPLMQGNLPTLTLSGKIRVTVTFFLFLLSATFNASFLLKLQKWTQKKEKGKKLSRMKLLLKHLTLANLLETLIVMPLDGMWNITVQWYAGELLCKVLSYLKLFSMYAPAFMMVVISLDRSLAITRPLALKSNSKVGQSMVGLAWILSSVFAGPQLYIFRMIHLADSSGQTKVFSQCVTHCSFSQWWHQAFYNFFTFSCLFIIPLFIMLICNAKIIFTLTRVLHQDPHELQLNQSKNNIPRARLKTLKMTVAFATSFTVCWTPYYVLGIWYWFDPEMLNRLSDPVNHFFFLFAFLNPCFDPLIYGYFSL

[4] = biological target: T1, Gonadotropin-releasing hormone receptor; assay: Compound was evaluated for its inhibitory activity against rat pituitary Gonadotropin-releasing hormone receptor
[5] = Compound was evaluated for its antagonism in CHO cells expressing the human receptor (hPI); type: functional, cell-based

| IC50 [1] [nM] | Compound | further results |
| --- | --- | --- |
| 360 | O=c1[nH]c2cc(Cl)c([N+](=O)[O-])cc2c(OCCC2CCCCN2)c1-c1ccccc1Cl (stereo not drawn) |  |
| 18 | Cc1ccc(-c2c(OCCC3CCCCN3)c3cc([N+](=O)[O-])c(Cl)cc3[nH]c2=O)cc1C (stereo not drawn) |  |
| 900 | O=c1[nH]c2cc(Cl)c([N+](=O)[O-])cc2c(OCCC2CCCCN2)c1-c1ccsc1 (stereo not drawn) |  |
| 53 | O=[N+]([O-])c1cc2c(OCCC3CCCCN3)c(-c3cccc(F)c3)c(O)nc2cc1Cl (stereo not drawn) |  |
| 200 | CC(C)(C)c1ccc(-c2c(OCCC3CCCCN3)c3cc([N+](=O)[O-])c(Cl)cc3[nH]c2=O)cc1 (stereo not drawn) |  |
| 23 | O=c1[nH]c2cc(Cl)c([N+](=O)[O-])cc2c(OCCC2CCCCN2)c1-c1ccc(Cl)s1 (stereo not drawn) |  |
| 27 | Cc1cccc(-c2c(O)nc3cc(Cl)c([N+](=O)[O-])cc3c2OCCC2CCCCN2)c1 (stereo not drawn) |  |
| 68 | O=C(Nc1cc2c(OCCC3CCCCN3)c(-c3ccc4ccccc4c3)c(=O)[nH]c2cc1Cl)NC1CC1 (stereo not drawn) |  |
| 18 | O=C(Nc1cc2c(OCCC3CCCCN3)c(-c3ccc(Cl)c(Cl)c3)c(O)nc2cc1Cl)NC1CC1 (stereo not drawn) |  |
| 40 | COc1ccc(-c2c(OCCC3CCCCN3)c3cc([N+](=O)[O-])c(Cl)cc3[nH]c2=O)cc1C (stereo not drawn) |  |
| 410 | O=c1[nH]c2cc(Cl)c([N+](=O)[O-])cc2c(OCCC2CCCCN2)c1-c1ccccc1 (stereo not drawn) |  |
| 270 | CCN(CC)Cc1cc(C)cc(-c2c(OCCC3CCCCN3)c3cc([N+](=O)[O-])c(Cl)cc3[nH]c2=O)c1 (stereo not drawn) |  |
| 53 | O=c1[nH]c2cc(Cl)c([N+](=O)[O-])cc2c(OCCC2CCCCN2)c1-c1ccc2ccccc2c1 (stereo not drawn) |  |
| 20 | Cc1cc(C)cc(-c2c(O)nc3cc(Cl)c(NC(=O)Nc4cccnc4)cc3c2OCCC2CCCCN2)c1 (stereo not drawn) | IC50 [2]: 1300 nM |
| 160 | O=c1[nH]c2cc(Cl)c([N+](=O)[O-])cc2c(OCCC2CCCCN2)c1-c1ccc(Cl)cc1 (stereo not drawn) |  |
| 220 | O=c1[nH]c2cc(Cl)c([N+](=O)[O-])cc2c(OCCC2CCCCN2)c1-c1cccs1 (stereo not drawn) |  |
| 25 | Cc1cc(C)cc(-c2c(O)nc3cc(Cl)c(NC(=O)c4cncnc4)cc3c2OCC[C@@H]2CCCCN2)c1 | IC50 [5]: 225 nM |
| 0.3 | Cc1cc(C)cc(-c2c(O)nc3cc(Cl)c(NC(=O)Nc4cnccn4)cc3c2OCCC2CCCCN2)c1 (stereo not drawn) | IC50 [2]: 56 nM; IC50 [5]: 9 nM |

Continued, compound first:

| Compound | IC50 [1] [nM] | further results |
| --- | --- | --- |
| Cc1cc(CC(N)=O)cc(-c2c(O)nc3cc(Cl)c([N+](=O)[O-])cc3c2OCCC2CCCCN2)c1 (stereo not drawn) | 71 |  |
| Cc1cc(C)cc(-c2c(O)nc3cc(Cl)c(NC(=O)Nc4ccccn4)cc3c2OCCC2CCCCN2)c1 (stereo not drawn) | 15 | IC50 [2]: 463 nM |
| Cc1cc(C)cc(-c2c(O)nc3cc(Cl)c(NC(=O)Nc4ncccn4)cc3c2OCCC2CCCCN2)c1 (stereo not drawn) | 6 |  |
| Cc1cc(C)cc(-c2c(O)nc3cc(Cl)c(NC(=O)c4cnccn4)cc3c2OCCC2CCCCN2)c1 (stereo not drawn) | 1.8 | IC50 [3]: 10 nM; IC50 [2]: 1920 nM |
| O=[N+]([O-])c1cc2c(OCCC3CCCCN3)c(-c3ccc(Cl)c(Cl)c3)c(O)nc2cc1Cl (stereo not drawn) | 29 |  |
| COc1ccc(-c2c(O)nc3cc(Cl)c([N+](=O)[O-])cc3c2OCCC2CCCCN2)cc1OC (stereo not drawn) | 600 |  |
| O=c1[nH]c2cc(Cl)c([N+](=O)[O-])cc2c(OCCC2CCCCN2)c1-c1cc(C(F)(F)F)cc(C(F)(F)F)c1 (stereo not drawn) | 71 |  |
| Cc1cc(C)cc(-c2c(O)nc3cc(Cl)c(NC(=O)NC4CC4)cc3c2OCCC2CCCCN2)c1 (stereo not drawn) | 0.8 | IC50 [4]: 1.1 nM; IC50 [2]: 375 nM and 682 nM; IC50 [5]: 12 nM and 5 nM |
| Cc1cc(C)cc(-c2c(OCCC3CCCCN3)c3cc(NC(=O)Nc4ccccc4)c(Cl)cc3[nH]c2=O)c1 (stereo not drawn) | 10 | IC50 [2]: 3300 nM |
| Cc1cc(C)cc(-c2c(OCC[C@@H]3CCCCN3)c3cc(NC(=O)NC4CC4)c(Cl)cc3[nH]c2=O)c1 |  | IC50 [3]: 2.3 nM |
| Cc1cc(CC#N)cc(-c2c(O)nc3cc(Cl)c([N+](=O)[O-])cc3c2OCCC2CCCCN2)c1 (stereo not drawn) | 18 |  |
| O=c1[nH]c2cc(Cl)c([N+](=O)[O-])cc2c(OCCC2CCCCN2)c1-c1cc(Cl)cc(Cl)c1 (stereo not drawn) | 24 |  |
| Cc1cc(C)cc(-c2c(OCC[C@@H]3CCCCN3)c3cc(NC(=O)Nc4cnccn4)c(Cl)cc3[nH]c2=O)c1 |  | IC50 [3]: 1.1 nM |
| Cc1cc(C)cc(-c2c(O)nc3cc(Cl)c(NC(=O)Nc4cncnc4)cc3c2OCC[C@@H]2CCCCN2)c1 |  | IC50 [3]: 57 nM; IC50 [5]: 897 nM |
| O=[N+]([O-])c1cccc(-c2c(O)nc3cc(Cl)c([N+](=O)[O-])cc3c2OCCC2CCCCN2)c1 (stereo not drawn) | 100 |  |
| Cc1cc(C)cc(-c2c(O)nc3cc(Cl)c(CC(=O)Nc4ccncn4)cc3c2OCCC2CCCCN2)c1 (stereo not drawn) | 7.9 | IC50 [2]: 2500 nM; IC50 [5]: 227 nM |
| O=C(Nc1ccncn1)c1cc2c(OCC[C@@H]3CCCCN3)c(-c3ccc(Cl)c(Cl)c3)c(O)nc2cc1Cl |  | IC50 [3]: 1 nM; IC50 [5]: 7.7 nM |
| O=[N+]([O-])c1cc2c(OCCC3CCCCN3)c(-c3cccc(Br)c3)c(O)nc2cc1Cl (stereo not drawn) | 40 |  |

| Compound | IC50 [1] [nM] | further results |
| --- | --- | --- |
| O=C(Nc1ccncn1)c1cc2c(OCC[C@@H]3CCCCN3)c(-c3cc(Cl)cc(Cl)c3)c(O)nc2cc1Cl |  | IC50 [3]: 1.1 nM; IC50 [5]: 8.5 nM |
| O=c1[nH]c2cc(Cl)c([N+](=O)[O-])cc2c(OCCC2CCCCN2)c1-c1cccc(Cl)c1 (stereo not drawn) | 40 |  |
| Cc1cc(C)cc(-c2c(O)nc3cc(Cl)c(NC(=O)c4cnccn4)cc3c2OCC[C@@H]2CCCCN2)c1 |  | IC50 [3]: 2 nM; IC50 [5]: 23 nM |
| Cc1ccc(-c2c(O)nc3cc(Cl)c([N+](=O)[O-])cc3c2OCCC2CCCCN2)c(C)c1 (stereo not drawn) | 400 |  |
| O=C(Nc1cc2c(OCCC3CCCCN3)c(-c3cccc(Br)c3)c(=O)[nH]c2cc1Cl)NC1CC1 (stereo not drawn) | 6 |  |
| Cc1cc(C)cc(-c2c(OCC[C@@H]3CCCCN3)c3cc(NC(=O)Nc4ccncn4)c(Cl)cc3[nH]c2=O)c1 |  | IC50 [3]: 1.8 nM |
| Cc1cc(-c2c(O)nc3cc(Cl)c(C(=O)Nc4ccncn4)cc3c2OCC[C@@H]2CCCCN2)ccc1I |  | IC50 [3]: 0.5 nM; IC50 [5]: 7.1 nM |
| Cc1cc(-c2c(O)nc3cc(Cl)c(C(=O)Nc4ccncn4)cc3c2OCC[C@@H]2CCCCN2)cc(C)c1C |  | IC50 [3]: 0.3 nM; IC50 [5]: 2.2 nM |
| O=C(Nc1ccncn1)c1cc2c(OCC[C@@H]3CCCCN3)c(-c3ccc(Cl)s3)c(O)nc2cc1Cl |  | IC50 [3]: 3.9 nM; IC50 [5]: 53 nM |
| O=C(Nc1ccncn1)c1cc2c(OCC[C@@H]3CCCCN3)c(-c3ccc4c(c3)CCC4)c(O)nc2cc1Cl |  | IC50 [3]: 0.7 nM; IC50 [5]: 16 nM |
| O=[N+]([O-])c1cc2c(OCCC3CCCCN3)c(-c3ccc(-c4ccccc4)c(Cl)c3)c(O)nc2cc1Cl (stereo not drawn) | 900 |  |
| CC(=O)OCc1cc(C)cc(-c2c(O)nc3cc(Cl)c([N+](=O)[O-])cc3c2OCCC2CCCCN2)c1 (stereo not drawn) | 45 |  |
| Cc1ccc(-c2c(O)nc3cc(Cl)c(C(=O)Nc4ccncn4)cc3c2OCC[C@@H]2CCCCN2)cc1C |  | IC50 [3]: 0.7 nM; IC50 [5]: 6.5 nM |
| Cc1cc(-c2c(O)nc3cc(Cl)c([N+](=O)[O-])cc3c2OCCC2CCCCN2)cc(C(C)O)c1 (stereo not drawn) | 63 |  |
| Cc1ccc(-c2c(OCCC3CCCCN3)c3cc(NC(=O)NC4CC4)c(Cl)cc3[nH]c2=O)cc1C (stereo not drawn) | 6 |  |
| Cc1cccc(-c2c(OCCC3CCCCN3)c3cc(NC(=O)NC4CC4)c(Cl)cc3[nH]c2=O)c1 (stereo not drawn) | 23 |  |
| Cc1cc(C)cc(-c2c(O)nc3cc(Cl)c(NC(=O)Nc4ccncc4)cc3c2OCCC2CCCCN2)c1 (stereo not drawn) | 40 |  |
| Cc1cc(C)cc(-c2c(OCCC3CCCCN3)c3cc(NC(=O)Nc4ccncn4)c(Cl)cc3[nH]c2=O)c1 (stereo not drawn) | 0.6 | IC50 [4]: 0.4 nM; IC50 [2]: 235 nM and 52 nM |

Source: ChEMBL document CHEMBL1133257, “Quinolones as gonadotropin releasing hormone (GnRH) antagonists: simultaneous optimization of the C(3)-aryl and C(6)-substituents” (Bioorg Med Chem Lett, 2000)
